Source: ChEMBL document CHEMBL3991601, “The target landscape of clinical kinase drugs” (Science, 2017)
pKd: −log10 of the molar value. Calls of active or inactive are those of the source.

Columns and labels:
[1] = target: Mitogen-activated protein kinase 11 (Homo sapiens, UniProt Q15759)
[2] = target: Casein kinase I isoform alpha (Homo sapiens, UniProt P48729)
Ephrin type-B receptor 3 = target: T1, Ephrin type-B receptor 3 (Homo sapiens, UniProt P54753)
T1 sequence (P54753 whole entry): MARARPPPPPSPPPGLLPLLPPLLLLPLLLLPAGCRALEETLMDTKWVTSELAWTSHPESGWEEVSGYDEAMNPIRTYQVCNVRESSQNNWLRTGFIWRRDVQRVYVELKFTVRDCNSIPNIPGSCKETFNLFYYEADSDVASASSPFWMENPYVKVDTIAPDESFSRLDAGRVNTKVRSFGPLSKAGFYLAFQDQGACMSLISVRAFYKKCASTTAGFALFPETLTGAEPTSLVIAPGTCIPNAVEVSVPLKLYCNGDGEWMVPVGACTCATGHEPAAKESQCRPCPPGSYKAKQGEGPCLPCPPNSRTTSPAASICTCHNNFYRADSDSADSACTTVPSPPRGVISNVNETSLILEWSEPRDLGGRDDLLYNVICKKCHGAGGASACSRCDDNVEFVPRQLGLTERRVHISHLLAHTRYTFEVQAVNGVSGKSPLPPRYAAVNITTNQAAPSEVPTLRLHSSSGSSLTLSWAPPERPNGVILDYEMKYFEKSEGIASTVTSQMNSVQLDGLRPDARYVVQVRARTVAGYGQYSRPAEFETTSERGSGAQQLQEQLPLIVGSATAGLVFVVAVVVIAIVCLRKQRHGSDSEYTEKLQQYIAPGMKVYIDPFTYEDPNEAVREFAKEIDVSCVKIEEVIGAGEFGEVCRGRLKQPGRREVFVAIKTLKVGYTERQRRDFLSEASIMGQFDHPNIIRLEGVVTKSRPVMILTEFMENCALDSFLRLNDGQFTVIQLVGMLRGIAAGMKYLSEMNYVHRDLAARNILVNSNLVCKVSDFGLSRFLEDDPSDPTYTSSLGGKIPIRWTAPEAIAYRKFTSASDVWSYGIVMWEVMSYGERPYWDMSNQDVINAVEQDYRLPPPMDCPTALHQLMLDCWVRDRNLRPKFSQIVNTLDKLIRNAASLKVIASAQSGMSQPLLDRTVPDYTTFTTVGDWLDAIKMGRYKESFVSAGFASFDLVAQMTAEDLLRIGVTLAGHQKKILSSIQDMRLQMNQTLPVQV

[3] = target: Casein kinase I isoform gamma-1 (Homo sapiens, UniProt Q9HCP0)
Focal adhesion kinase 1 = Focal adhesion kinase 1 (Homo sapiens, UniProt Q05397)
[4] = target: Tyrosine-protein kinase Fyn (Homo sapiens, UniProt P06241)
[5] = target: Putative heat shock protein HSP 90-beta 2 (Homo sapiens, UniProt Q58FF8)
[6] = target: T2, Succinate--CoA ligase [ADP-forming] subunit beta, mitochondrial (Homo sapiens, UniProt Q9P2R7)
T2 sequence (Q9P2R7 whole entry): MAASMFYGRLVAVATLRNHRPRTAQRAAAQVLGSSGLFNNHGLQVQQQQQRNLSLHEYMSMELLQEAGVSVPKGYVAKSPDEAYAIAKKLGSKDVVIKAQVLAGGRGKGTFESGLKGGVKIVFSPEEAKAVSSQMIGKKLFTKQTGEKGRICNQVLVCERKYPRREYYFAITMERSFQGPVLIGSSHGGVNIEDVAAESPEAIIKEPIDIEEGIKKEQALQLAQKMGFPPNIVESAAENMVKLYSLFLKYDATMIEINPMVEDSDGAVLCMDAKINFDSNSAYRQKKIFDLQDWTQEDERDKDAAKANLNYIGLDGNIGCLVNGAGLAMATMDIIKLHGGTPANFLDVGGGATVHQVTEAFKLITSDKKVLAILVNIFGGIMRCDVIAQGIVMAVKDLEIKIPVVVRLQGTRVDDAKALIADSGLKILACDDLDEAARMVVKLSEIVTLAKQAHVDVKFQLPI

[7] = target: Ribosomal protein S6 kinase beta-1 (Homo sapiens, UniProt P23443)
Activin receptor type-1B = target: T3, Activin receptor type-1B (Homo sapiens, UniProt P36896)
T3 sequence (P36896 whole entry): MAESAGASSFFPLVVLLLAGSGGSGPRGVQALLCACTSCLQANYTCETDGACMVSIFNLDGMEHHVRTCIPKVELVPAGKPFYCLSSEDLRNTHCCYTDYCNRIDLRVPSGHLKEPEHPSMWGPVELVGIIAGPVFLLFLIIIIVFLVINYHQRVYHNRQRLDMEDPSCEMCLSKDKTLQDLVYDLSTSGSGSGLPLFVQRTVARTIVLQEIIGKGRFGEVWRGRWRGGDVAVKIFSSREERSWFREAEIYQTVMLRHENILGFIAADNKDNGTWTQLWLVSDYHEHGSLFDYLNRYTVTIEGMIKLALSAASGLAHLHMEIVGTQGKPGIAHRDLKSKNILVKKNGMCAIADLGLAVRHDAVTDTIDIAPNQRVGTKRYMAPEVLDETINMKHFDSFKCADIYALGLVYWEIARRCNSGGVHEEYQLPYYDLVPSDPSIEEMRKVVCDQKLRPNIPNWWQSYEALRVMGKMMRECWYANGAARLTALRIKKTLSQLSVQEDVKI

[8] = target: AP2-associated protein kinase 1 (Homo sapiens, UniProt Q2M2I8)
Further: in the data inactive means no Kd found up to 30 µM.

Chain of Putative heat shock protein HSP 90-beta 2 (Q58FF8 whole entry): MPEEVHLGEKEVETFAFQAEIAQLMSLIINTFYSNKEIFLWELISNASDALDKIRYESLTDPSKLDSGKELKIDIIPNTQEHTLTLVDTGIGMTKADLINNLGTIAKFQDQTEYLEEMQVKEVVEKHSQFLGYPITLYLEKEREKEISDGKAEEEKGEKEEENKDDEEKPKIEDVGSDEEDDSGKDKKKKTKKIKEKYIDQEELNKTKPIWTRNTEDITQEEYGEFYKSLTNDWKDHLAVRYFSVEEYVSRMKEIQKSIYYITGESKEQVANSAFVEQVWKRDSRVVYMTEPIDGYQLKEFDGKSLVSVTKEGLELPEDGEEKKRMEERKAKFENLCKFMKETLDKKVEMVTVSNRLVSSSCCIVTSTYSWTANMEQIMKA
Chain of Casein kinase I isoform gamma-1 (Q9HCP0 whole entry, canonical isoform): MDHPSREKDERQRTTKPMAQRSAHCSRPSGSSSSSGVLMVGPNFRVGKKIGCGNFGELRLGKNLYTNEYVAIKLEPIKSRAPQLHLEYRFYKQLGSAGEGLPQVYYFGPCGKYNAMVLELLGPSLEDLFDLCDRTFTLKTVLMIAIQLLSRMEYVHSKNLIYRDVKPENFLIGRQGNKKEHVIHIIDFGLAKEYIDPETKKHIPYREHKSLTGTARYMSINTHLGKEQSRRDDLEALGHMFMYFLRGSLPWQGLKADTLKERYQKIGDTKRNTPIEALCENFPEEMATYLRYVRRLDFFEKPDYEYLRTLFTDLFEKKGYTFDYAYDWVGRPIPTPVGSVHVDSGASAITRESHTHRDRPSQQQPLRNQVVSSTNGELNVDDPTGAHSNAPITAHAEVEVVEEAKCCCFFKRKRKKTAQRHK
Chain of Tyrosine-protein kinase Fyn (P06241 whole entry): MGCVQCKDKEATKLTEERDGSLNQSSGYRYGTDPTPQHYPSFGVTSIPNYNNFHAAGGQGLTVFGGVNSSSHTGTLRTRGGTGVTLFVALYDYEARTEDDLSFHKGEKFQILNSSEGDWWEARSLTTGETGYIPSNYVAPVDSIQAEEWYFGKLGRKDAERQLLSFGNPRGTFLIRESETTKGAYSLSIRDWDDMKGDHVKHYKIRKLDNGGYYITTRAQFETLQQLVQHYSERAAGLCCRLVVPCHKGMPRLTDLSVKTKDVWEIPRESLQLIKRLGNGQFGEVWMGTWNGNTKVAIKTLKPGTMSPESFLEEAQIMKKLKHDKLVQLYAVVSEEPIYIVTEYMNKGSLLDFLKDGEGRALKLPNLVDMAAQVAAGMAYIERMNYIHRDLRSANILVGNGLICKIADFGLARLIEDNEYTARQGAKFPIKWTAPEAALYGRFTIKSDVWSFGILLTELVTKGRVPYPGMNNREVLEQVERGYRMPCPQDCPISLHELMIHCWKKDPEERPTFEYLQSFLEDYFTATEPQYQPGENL
Chain of AP2-associated protein kinase 1 (Q2M2I8 whole entry): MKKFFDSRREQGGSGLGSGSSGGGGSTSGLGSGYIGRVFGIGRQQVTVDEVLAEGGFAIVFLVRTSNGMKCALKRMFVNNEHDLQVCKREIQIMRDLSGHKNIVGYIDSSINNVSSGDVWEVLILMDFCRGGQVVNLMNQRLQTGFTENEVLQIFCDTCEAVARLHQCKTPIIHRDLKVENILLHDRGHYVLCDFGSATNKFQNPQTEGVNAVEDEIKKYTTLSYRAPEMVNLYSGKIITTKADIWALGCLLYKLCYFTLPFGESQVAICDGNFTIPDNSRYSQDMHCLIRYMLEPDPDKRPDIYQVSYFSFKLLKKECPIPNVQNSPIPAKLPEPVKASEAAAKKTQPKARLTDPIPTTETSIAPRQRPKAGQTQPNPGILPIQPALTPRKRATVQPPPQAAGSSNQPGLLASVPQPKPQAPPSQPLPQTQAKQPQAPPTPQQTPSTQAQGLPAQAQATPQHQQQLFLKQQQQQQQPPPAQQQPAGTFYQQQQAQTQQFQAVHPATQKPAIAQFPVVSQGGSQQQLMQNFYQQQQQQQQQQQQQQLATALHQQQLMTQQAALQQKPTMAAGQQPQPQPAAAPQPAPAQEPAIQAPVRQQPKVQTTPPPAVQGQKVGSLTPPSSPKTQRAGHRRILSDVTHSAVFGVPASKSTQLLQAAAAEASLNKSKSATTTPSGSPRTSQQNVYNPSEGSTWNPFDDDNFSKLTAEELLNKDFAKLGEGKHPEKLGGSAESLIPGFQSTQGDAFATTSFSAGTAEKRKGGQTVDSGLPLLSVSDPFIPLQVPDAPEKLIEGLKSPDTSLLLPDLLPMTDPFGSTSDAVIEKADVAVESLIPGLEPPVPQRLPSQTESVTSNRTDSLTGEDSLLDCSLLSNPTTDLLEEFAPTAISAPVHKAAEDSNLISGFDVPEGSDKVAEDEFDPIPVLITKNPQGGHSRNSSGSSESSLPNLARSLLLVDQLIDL
Chain of Casein kinase I isoform alpha (P48729 whole entry, canonical isoform): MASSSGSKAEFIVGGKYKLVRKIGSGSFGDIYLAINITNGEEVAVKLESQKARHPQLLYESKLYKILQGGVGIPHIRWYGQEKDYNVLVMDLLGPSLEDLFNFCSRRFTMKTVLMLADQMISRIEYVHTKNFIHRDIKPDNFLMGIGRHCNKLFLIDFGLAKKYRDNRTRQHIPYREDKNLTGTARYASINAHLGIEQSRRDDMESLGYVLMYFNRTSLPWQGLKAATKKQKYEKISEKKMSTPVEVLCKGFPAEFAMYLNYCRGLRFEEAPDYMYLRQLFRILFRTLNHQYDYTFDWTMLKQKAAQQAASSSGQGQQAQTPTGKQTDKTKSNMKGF
Chain of Mitogen-activated protein kinase 11 (Q15759 whole entry, canonical isoform): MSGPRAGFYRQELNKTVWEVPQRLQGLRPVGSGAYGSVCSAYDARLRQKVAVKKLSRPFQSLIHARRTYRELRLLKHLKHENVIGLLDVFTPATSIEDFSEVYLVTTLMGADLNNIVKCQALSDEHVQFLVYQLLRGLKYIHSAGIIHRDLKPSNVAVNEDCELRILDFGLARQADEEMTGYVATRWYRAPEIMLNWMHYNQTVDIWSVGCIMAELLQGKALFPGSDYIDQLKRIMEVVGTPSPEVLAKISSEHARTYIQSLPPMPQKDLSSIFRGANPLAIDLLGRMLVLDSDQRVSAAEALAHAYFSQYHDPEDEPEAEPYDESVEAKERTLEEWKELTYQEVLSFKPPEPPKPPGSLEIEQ
Chain of Focal adhesion kinase 1 (Q05397 whole entry): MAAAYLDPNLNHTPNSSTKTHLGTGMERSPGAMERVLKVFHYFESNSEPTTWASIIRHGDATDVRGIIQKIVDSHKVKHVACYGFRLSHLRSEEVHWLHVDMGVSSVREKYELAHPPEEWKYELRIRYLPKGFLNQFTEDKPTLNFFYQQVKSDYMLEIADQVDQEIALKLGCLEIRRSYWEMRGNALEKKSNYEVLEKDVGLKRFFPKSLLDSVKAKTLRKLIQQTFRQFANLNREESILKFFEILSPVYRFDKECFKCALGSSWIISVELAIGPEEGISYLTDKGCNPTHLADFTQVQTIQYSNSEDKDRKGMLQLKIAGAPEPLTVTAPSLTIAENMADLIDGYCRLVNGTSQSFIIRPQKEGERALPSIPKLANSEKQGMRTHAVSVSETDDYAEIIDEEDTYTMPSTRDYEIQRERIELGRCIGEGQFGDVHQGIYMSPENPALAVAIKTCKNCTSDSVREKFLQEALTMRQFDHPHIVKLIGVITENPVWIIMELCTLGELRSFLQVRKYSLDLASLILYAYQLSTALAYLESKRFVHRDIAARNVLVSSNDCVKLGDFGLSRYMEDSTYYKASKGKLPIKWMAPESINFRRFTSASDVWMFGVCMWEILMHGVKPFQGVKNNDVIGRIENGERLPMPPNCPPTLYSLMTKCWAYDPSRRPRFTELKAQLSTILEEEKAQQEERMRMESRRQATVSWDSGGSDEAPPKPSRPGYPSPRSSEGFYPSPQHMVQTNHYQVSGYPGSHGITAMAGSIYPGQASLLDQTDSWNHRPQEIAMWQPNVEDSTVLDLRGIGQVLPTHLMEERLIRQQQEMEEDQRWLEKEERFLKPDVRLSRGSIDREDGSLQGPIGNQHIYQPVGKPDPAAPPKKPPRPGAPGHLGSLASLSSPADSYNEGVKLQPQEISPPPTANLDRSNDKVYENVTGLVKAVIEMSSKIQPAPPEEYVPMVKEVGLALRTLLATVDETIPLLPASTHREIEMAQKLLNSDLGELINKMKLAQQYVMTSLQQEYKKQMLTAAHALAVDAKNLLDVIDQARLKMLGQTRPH
Chain of Ribosomal protein S6 kinase beta-1 (P23443 whole entry): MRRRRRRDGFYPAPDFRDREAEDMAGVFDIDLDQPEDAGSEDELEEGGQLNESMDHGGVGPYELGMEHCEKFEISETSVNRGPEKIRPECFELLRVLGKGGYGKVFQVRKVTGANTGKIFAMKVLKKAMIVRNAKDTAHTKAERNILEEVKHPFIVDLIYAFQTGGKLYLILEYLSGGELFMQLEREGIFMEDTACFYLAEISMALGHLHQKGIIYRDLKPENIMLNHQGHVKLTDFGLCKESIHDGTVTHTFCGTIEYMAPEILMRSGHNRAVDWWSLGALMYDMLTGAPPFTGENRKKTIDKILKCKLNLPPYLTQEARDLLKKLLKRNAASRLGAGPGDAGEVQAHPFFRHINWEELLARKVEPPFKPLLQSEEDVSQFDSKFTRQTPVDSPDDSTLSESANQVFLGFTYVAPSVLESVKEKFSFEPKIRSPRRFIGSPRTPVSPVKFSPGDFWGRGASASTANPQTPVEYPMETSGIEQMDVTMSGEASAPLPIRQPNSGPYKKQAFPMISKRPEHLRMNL

Row | Kd [1] | Kd [2] | Kd (Ephrin type-B receptor 3) | Kd (Focal adhesion kinase 1) | Kd [4] | Kd [5] | Kd [6] | Kd [7] | Kd [3] | pKd [4] | Kd (Activin receptor type-1B) | Kd [8] | SMILES | pKd [3]
1 | > 30 µM (inactive) | > 30 µM (inactive) | > 30 µM (inactive) | > 30 µM (inactive) | – | > 30 µM (inactive) | > 30 µM (inactive) | > 30 µM (inactive) | > 30 µM (inactive) | 8.30 | > 30 µM (inactive) | > 30 µM (inactive) | C=CC(=O)N1CCC[C@H](n2c(=O)n(-c3ccc(Oc4ccccc4)cc3)c3c(N)ncnc32)C1 | –
2 | > 30 µM (inactive) | > 30 µM (inactive) | > 30 µM (inactive) | > 30 µM (inactive) | > 30 µM (inactive) | > 30 µM (inactive) | > 30 µM (inactive) | > 30 µM (inactive) | > 30 µM (inactive) | – | > 30 µM (inactive) | > 30 µM (inactive) | COCc1c(-c2ccc(NC(=O)Nc3cc(C(F)(F)F)ccc3F)c(F)c2)c2c(N)ncnn2c1CN1CCOCC1 | –
3 | – | > 30 µM (inactive) | > 30 µM (inactive) | > 30 µM (inactive) | > 30 µM (inactive) | > 30 µM (inactive) | – | – | > 30 µM (inactive) | – | > 30 µM (inactive) | > 30 µM (inactive) | Cc1cc(C(=O)NOCCO)c(Nc2ccc(I)cc2F)n(C)c1=O [AZD-8330] | –
4 | > 30 µM (inactive) | > 30 µM (inactive) | > 30 µM (inactive) | > 30 µM (inactive) | > 30 µM (inactive) | > 30 µM (inactive) | > 30 µM (inactive) | > 30 µM (inactive) | > 30 µM (inactive) | – | > 30 µM (inactive) | > 30 µM (inactive) | CCn1c(C(=O)N(C2CC2)C2CC2)cc2c3c(ncn3C)c(Nc3cc(C)n(C)n3)nc21 [BMS-911543] | –
5 | > 30 µM (inactive) | > 30 µM (inactive) | > 30 µM (inactive) | > 30 µM (inactive) | > 30 µM (inactive) | > 30 µM (inactive) | > 30 µM (inactive) | – | > 30 µM (inactive) | – | > 30 µM (inactive) | > 30 µM (inactive) | Cc1nc2cc(-n3ncc(C(=O)c4cc5ccccc5[nH]4)c3N)ccc2[nH]1 [FGFR INHIBITOR DEBIO 1347] | –
6 | > 30 µM (inactive) | – | > 30 µM (inactive) | > 30 µM (inactive) | > 30 µM (inactive) | > 30 µM (inactive) | – | – | > 30 µM (inactive) | – | 1.21 µM (active) | > 30 µM (inactive) | CCn1cc(-c2ccnc3[nH]c(-c4cccc(CN(C)C)c4)cc23)c(-c2ccc(NC(=O)N(C)C)cc2)n1 [GSK-1070916] | –
7 | > 30 µM (inactive) | > 30 µM (inactive) | > 30 µM (inactive) | > 30 µM (inactive) | > 30 µM (inactive) | > 30 µM (inactive) | > 30 µM (inactive) | > 30 µM (inactive) | > 30 µM (inactive) | – | > 30 µM (inactive) | > 30 µM (inactive) | NC1(c2ccc(-c3nc4ccn5c(=O)[nH]nc5c4cc3-c3ccccc3)cc2)CCC1 [MK-2206] | –
8 | > 30 µM (inactive) | > 30 µM (inactive) | > 30 µM (inactive) | > 30 µM (inactive) | > 30 µM (inactive) | > 30 µM (inactive) | > 30 µM (inactive) | > 30 µM (inactive) | > 30 µM (inactive) | – | > 30 µM (inactive) | > 30 µM (inactive) | COc1ncc(-c2ccc3nccc(-c4ccnnc4)c3c2)cc1NS(=O)(=O)c1ccc(F)cc1F [OMIPALISIB] | –
9 | > 30 µM (inactive) | – | > 30 µM (inactive) | – | – | > 30 µM (inactive) | – | – | – | – | > 30 µM (inactive) | 0.009 µM (active) | CC(=O)NCC(=O)N1[C@@H]2CC[C@H]1c1ccc(Nc3ncc(C(F)(F)F)c(NC4CCC4)n3)cc12 [PF-03814735] | –
10 | > 30 µM (inactive) | > 30 µM (inactive) | > 30 µM (inactive) | > 30 µM (inactive) | > 30 µM (inactive) | > 30 µM (inactive) | > 30 µM (inactive) | > 30 µM (inactive) | > 30 µM (inactive) | – | > 30 µM (inactive) | > 30 µM (inactive) | N#CC1(c2ccc(NC(=O)c3cccnc3NCc3ccncc3)cc2)CCCC1 [RIVOCERANIB] | –
11 | > 30 µM (inactive) | – | > 30 µM (inactive) | > 30 µM (inactive) | > 30 µM (inactive) | > 30 µM (inactive) | > 30 µM (inactive) | – | > 30 µM (inactive) | – | > 30 µM (inactive) | 0.122 µM (active) | C[C@@H](N)c1ccc(C(=O)Nc2ccnc3[nH]ccc23)cc1 [Y-39983] | –

Row | SMILES | Kd [1] | Kd [2] | Kd (Ephrin type-B receptor 3) | Kd (Focal adhesion kinase 1) | Kd [4] | Kd [5] | Kd [6] | Kd [7] | Kd [3] | pKd [4] | Kd (Activin receptor type-1B) | Kd [8] | pKd [3]
12 | CC(=O)c1cnc2ccc(-c3cc(Cl)c(O)c(Cl)c3)nc2c1N[C@H]1CC[C@H](CN(C)C)CC1 | > 30 µM (inactive) | 0.931 µM (active) | > 30 µM (inactive) | 0.118 µM (active) | 0.125 µM (active) | > 30 µM (inactive) | > 30 µM (inactive) | > 30 µM (inactive) | – | – | – | – | 6.18
13 | Cn1cc(C2=C(c3cn(C4CCN(Cc5ccccn5)CC4)c4ccccc34)C(=O)NC2=O)c2ccccc21 [ENZASTAURIN] | – | – | – | – | – | > 30 µM (inactive) | > 30 µM (inactive) | – | – | – | – | – | –
14 | O=C(Nc1nc2cccc(-c3ccc(CN4CCS(=O)(=O)CC4)cc3)n2n1)C1CC1 [FILGOTINIB] | > 30 µM (inactive) | > 30 µM (inactive) | > 30 µM (inactive) | > 30 µM (inactive) | > 30 µM (inactive) | > 30 µM (inactive) | > 30 µM (inactive) | > 30 µM (inactive) | > 30 µM (inactive) | – | > 30 µM (inactive) | 4.99 µM (active) | –
15 | CCCCCCCCCCCCCCCCCCOP(=O)([O-])OC1CC[N+](C)(C)CC1 [PERIFOSINE] | > 30 µM (inactive) | > 30 µM (inactive) | > 30 µM (inactive) | > 30 µM (inactive) | > 30 µM (inactive) | > 30 µM (inactive) | > 30 µM (inactive) | – | > 30 µM (inactive) | – | > 30 µM (inactive) | > 30 µM (inactive) | –
16 | CNC(=O)c1cc(Oc2ccc(NC(=O)Nc3cc(C(C)(C)C)nn3-c3ccc4ncccc4c3)c(F)c2)ccn1 [REBASTINIB] | > 30 µM (inactive) | > 30 µM (inactive) | > 30 µM (inactive) | > 30 µM (inactive) | – | > 30 µM (inactive) | > 30 µM (inactive) | > 30 µM (inactive) | > 30 µM (inactive) | – | > 30 µM (inactive) | > 30 µM (inactive) | –
17 | Cc1cc(Nc2ncnc3ccc(NC4=NC(C)(C)CO4)cc23)ccc1Oc1ccn2ncnc2c1 [TUCATINIB] | > 30 µM (inactive) | – | > 30 µM (inactive) | > 30 µM (inactive) | > 30 µM (inactive) | > 30 µM (inactive) | > 30 µM (inactive) | > 30 µM (inactive) | > 30 µM (inactive) | – | > 30 µM (inactive) | > 30 µM (inactive) | –
